Measured values taken from patent publication US9867794B2, “Regulation of osteopontin” (Pathologica LLC, priority 2007, dated 2018).

What was measured:
OPN protein = assay: OPN production inhibition assay in un-stimulated PBMC cultures, OPN protein; type: cell-based; details: 10 μM
Description: (§1) 10 μM of each drug was added to un-stimulated PBMC cultures at time=0 and cells were harvested 1,3, and 6 days later for quantitative OPN RNA and protein production analysis.

OPN RNA = assay: OPN production inhibition assay in un-stimulated PBMC cultures, OPN RNA; type: cell-based; details: 10 μM, harvested 1, 3 and 6 days
Description: as §1

CD14+/CD16+ cells [1] = assay: Macrophage activation via flow cytometry, mononuclear cells cultured for 3 days; type: cell-based
Description: (§2) We investigated macrophage activation via flow cytometry and levels of pro- and anti-inflammatory cytokines in cell culture supernatants of mononuclear cells. 10 μg/ml recombinant human OPN (rOPN) was added to mononuclear cells cultured for 3 days, with and without fetal bovine serum (FBS) in cell culture medium, and analyzed via flow cytometry. […] An increase in CD14+/CD16+ cells was also observed with cells cultured in serum free medium and rOPN in comparison to control. To observe the effects of OPN neutralizing antibody on macrophage activation, 10 μg of antibody was added to cultures for 3 days. […] We also investigated the levels of pro- and anti-inflammatory cytokines in all cell culture supernatants of each time point. On average, IL-6, IL-1β, TNF-α, IL-10, and IL-12p40 were at least 50-fold higher with rOPN at 24 and 72 hours in all culture conditions in comparison to control.

CD14+/CD16+ cells [2] = assay: Exogenous rOPN on macrophage yield, flow cytometry of PBMC cultures; type: cell-based, human; details: 10 μg/ml rOPN
Description: To determine the role of exogenous recombinant human OPN (rOPN) in macrophage activation, 10 μg/ml rOPN(R&D Systems, Inc., Minneapolis, Minn.) was added to non-adherent PBMC cultures grown in complete or in serum free medium for 24 and 72 hours, and analyzed via flow cytometry. […] Shown in the upper right quadrant in FIG. 8 is the percentage of cells that are double positive for CD14 and CD16 surface markers.

[3] = tested on: pro- and anti-inflammatory cytokines; assay: Cytokine levels in cell culture supernatants of mononuclear cells; type: cell-based; details: rOPN
Description: as §2

[4] = 24 and 72 hours, all culture conditions, on average
[5] = any time point and culture condition

CCNCCCNC/C=C\CNCCCNCC.Cl.Cl.Cl.Cl [SL47, N,N′-bis(3-ethylaminopropyl)-cis-but-2-ene-1,4-diamine tetrahydrochloride]
OPN protein production (OPN protein): Complete inhibition | OPN RNA expression (OPN RNA): inhibited in a time dependant manner

CCNCCCCNC[C@@H]1C[C@H]1CNCCCCNCC [SL93, N,N′-(cyclopropane-1,2-diylbis(methylene))bis(N4-ethylbutane-1,4-diamine)]
OPN protein production (OPN protein): Complete inhibition | OPN RNA expression (OPN RNA): inhibited in a time dependant manner

rOPN: exogenous recombinant human OPN (R&D Systems, Inc.)
accumulation of CD14+/CD16+ cells vs FBS-only control (CD14+/CD16+ cells [1]; 10 μg/ml rOPN and FBS, 24 hours): no significant accumulation | increase in CD14+/CD16+ cells vs control (CD14+/CD16+ cells [1]; 10 μg/ml rOPN, 72 hours): 12 fold | CD14+/CD16+ cells vs control (CD14+/CD16+ cells [1]; 10 μg/ml rOPN, serum free medium): increase | accumulation of CD14+/CD16+ cells vs control (CD14+/CD16+ cells [2]; complete medium, 24 hours): no significant accumulation | increase in CD14+/CD16+ cells vs control (CD14+/CD16+ cells [2]; complete medium, 72 hours): 11 fold | increase in CD14+/CD16+ cells vs serum free control (CD14+/CD16+ cells [2]; serum free, 72 hours): 2.97 fold | IL-1β level vs control [3, 4]: at least 50 fold | IL-6 level vs control [3, 4]: at least 50 fold | IL-10 level vs control [3, 4]: at least 50 fold | IL-12p40 level vs control [3, 4]: at least 50 fold | TNF-α level vs control [3, 4]: at least 50 fold | IL-4 level vs control [3, 5]: no significant difference | IL-12p70 level vs control [3, 5]: no significant difference

B1: MCSF: growth factor MCSF (protein, UniProt P09603 33-554, looked up)
Macrophage colony-stimulating …: EEVSEYCSHMIGSGHLQSLQRLIDSQMETSCQITFEFVDQEQLKDPVCYLKKAFLLVQDIMEDTMRFRDNTPNAIAIVQLQELSLRLKSCFTKDYEEHDKACVRTFYETPLQLLEKVKNVFNETKNLLDKDWNIFSKNCNNSFAECSSQDVVTKPDCNCLYPKAIPSSDPASVSPHQPLAPSMAPVAGLTWEDSEGTEGSSLLPGEQPLHTVDPGSAKQRPPRSTCQSFEPPETPVVKDSTIGGSPQPRPSVGAFNPGMEDILDSAMGTNWVPEEASGEASEIPVPQGTELSPSRPGGGSMQTEPARPSNFLSASSPLPASAKGQQPADVTGTALPRVGPVRPTGQDWNHTPQKTDHPSALLRDPPEPGSPRISSLRPQGLSNPSTLSAQPQLSRSHSSGSVLPLGELEGRRSTRDRRSPAEPEGGPASEGAARPLPRFNSVPLTDTGHERQSEGSFSPQLQESVFHLLVPSVILVLLAVGGLLFYRWRRRSHQEPQRADSPLEQPEGSPLTQDDRQVELPV
OPN RNA expression (OPN RNA): no effect
